{"source": "patent US20210292807A1", "about": "“METHOD FOR TESTING ANTIMICROBIAL SUSCEPTIBILITY” (priority 2017, published 2021)", "origin": "cited, not measured here", "tested_on": "Klebsiella isolates", "conditions": "cited from earlier work", "note": "Read-outs that look alike come from different tables or passages of the source."}
{"smiles": "C[C@@H](O)[C@H]1C(=O)N2C(C(=O)O)=C(S[C@@H]3CN[C@H](C(=O)N(C)C)C3)[C@H](C)[C@H]12", "note": "[meropenem]", "values": [{"measurement": "MIC, high-level resistance end of the collection's susceptibility phenotypes", "setting": "48 Klebsiella isolates", "result": "> 256", "unit": "µg/mL"}, {"measurement": "MIC, highly-susceptible end of the collection's susceptibility phenotypes", "setting": "48 Klebsiella isolates", "result": "< 1.006", "unit": "µg/mL"}, {"measurement": "Referring Lab's MIC", "setting": "isolate 194, Sweden, VIM", "result": "≥32", "unit": "mg/L"}, {"measurement": "Referring Lab's MIC", "setting": "isolate 374, Sweden, VIM", "result": ">32", "unit": "mg/L"}, {"measurement": "Referring Lab's MIC", "setting": "isolate 3354, Australia", "result": "≤≤0.25 mg/L"}, {"measurement": "Referring Lab's MIC", "setting": "isolate 10924, Sweden, KPC", "result": 4, "unit": "mg/L"}, {"measurement": "Referring Lab's MIC", "setting": "isolate 18397, Australia", "result": "≤≤0.25 mg/L"}, {"measurement": "Referring Lab's MIC", "setting": "isolate 43288, Australia", "result": "≤≤0.25 mg/L"}, {"measurement": "Referring Lab's MIC", "setting": "isolate 43292, Australia", "result": "≤≤0.25 mg/L"}, {"measurement": "Referring Lab's MIC", "setting": "isolate 43358, Australia", "result": "≤≤0.25 mg/L"}, {"measurement": "Referring Lab's MIC", "setting": "isolate 43854, Australia", "result": "≤≤0.25 mg/L"}, {"measurement": "Referring Lab's MIC", "setting": "isolate 44271, Australia", "result": "≤≤0.25 mg/L"}, {"measurement": "Referring Lab's MIC", "setting": "isolate 51575, Sweden, ESBL", "result": 0.064, "unit": "mg/L"}, {"measurement": "Referring Lab's MIC", "setting": "isolate 70708, Sweden, KPC", "result": 16, "unit": "mg/L"}, {"measurement": "Referring Lab's MIC", "setting": "isolate 71076, Sweden, KPC", "result": "≥32", "unit": "mg/L"}, {"measurement": "Referring Lab's MIC", "setting": "isolate 200822, Sweden, KPC", "result": 8, "unit": "mg/L"}, {"measurement": "Referring Lab's MIC", "setting": "isolate 270902, England", "result": 0.125, "unit": "mg/L"}, {"measurement": "Referring Lab's MIC", "setting": "isolate 500638, Sweden, pAmpC", "result": "≤0.25", "unit": "mg/L"}, {"measurement": "Referring Lab's MIC", "setting": "isolate 515870, Sweden, ESBL", "result": 0.125, "unit": "mg/L"}, {"measurement": "Referring Lab's MIC", "setting": "isolate 2440606, England", "result": "≤0.06", "unit": "mg/L"}, {"measurement": "Referring Lab's MIC", "setting": "isolate 2880622, England", "result": "≤0.06", "unit": "mg/L"}, {"measurement": "Referring Lab's MIC", "setting": "isolate 2880654, England, KPC", "result": 4, "unit": "mg/L"}, {"measurement": "Referring Lab's MIC", "setting": "isolate 2890369, England", "result": 1, "unit": "mg/L"}, {"measurement": "Referring Lab's MIC", "setting": "isolate 2980639, England", "result": 1, "unit": "mg/L"}, {"measurement": "Referring Lab's MIC", "setting": "isolate 3000770, England, NDM-1", "result": ">32", "unit": "mg/L"}, {"measurement": "Referring Lab's MIC", "setting": "isolate 3040820, England, pAmpC", "result": "≤0.06", "unit": "mg/L"}, {"measurement": "Referring Lab's MIC", "setting": "isolate 3080800, England, KPC", "result": ">32", "unit": "mg/L"}, {"measurement": "Referring Lab's MIC", "setting": "isolate ATCC 700603, USA", "result": "≤≤0.25 mg/L"}, {"measurement": "Referring Lab's MIC", "setting": "isolate ATCC BAA 1705, USA, KPC", "result": 8, "unit": "mg/L"}, {"measurement": "Referring Lab's MIC", "setting": "isolate ATCC BAA 1706, USA", "result": "≤≤0.25 mg/L"}, {"measurement": "Referring Lab's MIC", "setting": "isolate K1, Australia, OXA-181", "result": 64, "unit": "mg/L"}, {"measurement": "Referring Lab's MIC", "setting": "isolate K2, Australia, OXA-181", "result": 64, "unit": "mg/L"}, {"measurement": "Referring Lab's MIC", "setting": "isolate K8, Australia, NDM-1", "result": ">256", "unit": "mg/L"}, {"measurement": "Referring Lab's MIC", "setting": "isolate K14, Australia, KPC", "result": 256, "unit": "mg/L"}, {"measurement": "Referring Lab's MIC", "setting": "isolate K16, Australia, IMP - 4", "result": 2, "unit": "mg/L"}, {"measurement": "Referring Lab's MIC", "setting": "isolate K23, Australia, IMP - 4", "result": 0.5, "unit": "mg/L"}, {"measurement": "Referring Lab's MIC", "setting": "isolate KS1, Sri Lanka, OXA-181", "result": 1, "unit": "mg/L"}, {"measurement": "Referring Lab's MIC", "setting": "isolate KS2, Sri Lanka, OXA-181", "result": "≥32", "unit": "mg/L"}, {"measurement": "Referring Lab's MIC", "setting": "isolate KS17, Sri Lanka, OXA-181", "result": "≥32", "unit": "mg/L"}, {"measurement": "Referring Lab's MIC", "setting": "isolate KS23, Sri Lanka, OXA-181", "result": "≥32", "unit": "mg/L"}, {"measurement": "Referring Lab's MIC", "setting": "isolate N17, Sweden, NDM-1", "result": "≥32", "unit": "mg/L"}]}
